Experiment [1] has as its system Green Peach Aphid (Myzus Persicae). As to the kind of experiment: Insecticidal test for green peach aphid in foliar spray assay (col. MYZUPE). The class given is in vivo. To be noted: for pest or weed control at 200 ppm: Myzus persicae, 72 h, read-out: MYZUPE 200 ppm (Corrected % Control, rating). In a few lines: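 Corrected % control derives from microscope counts of live aphids per plant, treated against diluent-only checks, 3 days after foliar spraying at ~25 °C and 40% RH. Test solution was 200 ppm in 0.025% aqueous Tween 20, applied to both leaf sides of infested cabbage seedlings, four pots each.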

The test system of experiment [2] is Sweetpotato Whitefly-Crawler (Bemisia Tabaci). Put plainly: Insecticidal test for sweetpotato whitefly-crawler in foliar spray assay (col. BEMITA). Format: in vivo. Particulars: for pest or weed control at 200 ppm: Bemisia tabaci, read-out: BEMITA 200 ppm (Corrected % Control, rating). In a few lines: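 Percent control, Abbott-corrected against diluent-sprayed plants, from microscope counts of live nymphs 8-9 days after treatment. Test solution at 200 ppm in 0.025% aqueous Tween 20 applied to both leaf sides of egg-infested cotton after a 5-6 day hatch period (82° F, 50% RH).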

Where two headings read alike, the source gives them in different places.

For the compound `Cc1nc(-c2cccnc2)sc1N(Cc1ccccc1)C(=O)OC(C)(C)C` [Compound 15, Benzyl-(4-methyl-2-pyridin-3-yl-thiazol-5-yl)-carbamic acid tert-butyl ester], the pest or weed control at 200 ppm in experiment [1] (green peach aphid) and in experiment [2] (sweetpotato whitefly-crawler) was 80 to 100% in each case.

In the case of `CCN(C(=O)Cc1ccncc1)c1sc(-c2cccnc2)nc1Cl` [Compound 562], the pest or weed control at 200 ppm is 80 to 100% in experiment [1] (Abbott's correction formula) and below 80% in experiment [2] (Abbott's correction formula).

As for `Cc1nc(-c2cncc(F)c2)sc1N(C)C(=O)CC[S+](C)[O-]` (centres unmarked) [Compound 91], the pest or weed control at 200 ppm in experiment [1] (green peach aphid) and in experiment [2] (sweetpotato whitefly-crawler) was 80 to 100% each time.

Turning to `Cc1nc(-c2cccnc2)sc1N(C)C(=O)CN(C)C(=O)C(C)n1cccn1` (centres unmarked) [Compound 430], the values for the pest or weed control at 200 ppm in experiment [1] (Abbott's correction formula) and in experiment [2] (Abbott's correction formula) were 80 to 100% and below 80%, respectively.

In the case of `CCc1nc(-c2cccnc2)sc1N(C)C(=O)C(F)(F)F` [Compound 3, N-(4-Ethyl-2-pyridin-3-yl-thiazol-5-yl)-2,2,2-trifluoro-N-methyl-acetamide], the pest or weed control at 200 ppm in experiment [1] (green peach aphid) and in experiment [2] (sweetpotato whitefly-crawler) was below 80% each time.

Regarding `CCS(=O)(=O)N1CCCC(C(=O)N(C)c2sc(-c3cccnc3)nc2Cl)C1` (centres unmarked) [Compound 394], the pest or weed control at 200 ppm in experiment [1] (green peach aphid) and in experiment [2] (sweetpotato whitefly-crawler) was 80 to 100% each time.

Take `CSC(C)(C)CC(=O)N(C)c1sc(-c2cncc(F)c2)nc1Cl` [Compound 443]: the pest or weed control at 200 ppm in experiment [1] (Abbott's correction formula) and in experiment [2] (Abbott's correction formula) was 80 to 100% in each case.

For the compound `CSCCCC(=O)N(C)c1sc(-c2cccnc2)nc1Cl` [Compound 371], the pest or weed control at 200 ppm in experiment [1] (green peach aphid) and in experiment [2] (sweetpotato whitefly-crawler) was 80 to 100% throughout.

On to `CN(C(=S)NCCSc1ccc(Cl)cc1)c1sc(-c2cccnc2)nc1Cl` [Compound 512], for which the values for the pest or weed control at 200 ppm in experiment [1] (Abbott's correction formula) and in experiment [2] (Abbott's correction formula) were below 80% and 80 to 100%, respectively.

Take `CCCC(C)(C)OC(=O)Nc1sc(-c2cccnc2)nc1C` [Compound 192]: the pest or weed control at 200 ppm in experiment [1] (green peach aphid) and in experiment [2] (sweetpotato whitefly-crawler) was 80 to 100% throughout.

With `Cc1nc(-c2cccnc2)sc1N(C)C(=O)[C@H](CSCc1ccccc1)NC(=O)OC(C)(C)C` [Compound 290], the pest or weed control at 200 ppm in experiment [1] (green peach aphid) and in experiment [2] (sweetpotato whitefly-crawler) was below 80% throughout.

On to `COC(=O)CCC(=O)N(C(=O)C(C)CSC)c1sc(-c2cccnc2)nc1C` (centres unmarked) [Compound 189], for which the pest or weed control at 200 ppm in experiment [1] (green peach aphid) and in experiment [2] (sweetpotato whitefly-crawler) was 80 to 100% in each case.

In the case of `Cc1nc(-c2cncc(F)c2)sc1N(C)C(=O)C(C)C[S+](C)[O-]` (centres unmarked) [Compound 86], the pest or weed control at 200 ppm in experiment [1] (green peach aphid) and in experiment [2] (sweetpotato whitefly-crawler) was 80 to 100% in each case.

In the case of `CS[C@H]1CC1C(=O)N(C)c1sc(-c2cncc(F)c2)nc1Cl` (mixture of isomers) [Compound 445], the pest or weed control at 200 ppm in experiment [1] (Abbott's correction formula) and in experiment [2] (Abbott's correction formula) was 80 to 100% throughout.

As for `Cc1nc(-c2cccnc2)sc1NC(=O)C1CCN1C(=O)OC(C)(C)C` (centres unmarked) [Compound 337], the pest or weed control at 200 ppm in experiment [1] (green peach aphid) is below 80%; in experiment [2] (sweetpotato whitefly-crawler), 80 to 100%.

In the case of `CSCc1ccc(C(=O)N(C)c2sc(-c3cccnc3)nc2Cl)o1` [Compound 409], the “MYZUPE 200 ppm (Corrected % Control, rating)” value in experiment [1] (green peach aphid) is “A (80-100)”. Further, the “BEMITA 200 ppm (Corrected % Control, rating)” value in experiment [2] (sweetpotato whitefly-crawler) is listed as “A (80-100)”.

Take `CCN(C(=O)C(C)(C)C[S+](C)[O-])c1sc(-c2cncc(F)c2)nc1C` (centres unmarked) [Compound 260]: the pest or weed control at 200 ppm in experiment [1] (green peach aphid) and in experiment [2] (sweetpotato whitefly-crawler) was 80 to 100% throughout.

On to `COc1cncc(-c2nc(C)c(N(C(=O)OC(C)(C)C)C(=O)C(C)CSC)s2)c1` (centres unmarked) [Compound 176], for which the pest or weed control at 200 ppm in experiment [1] (green peach aphid) and in experiment [2] (sweetpotato whitefly-crawler) was below 80% throughout.

Regarding `CCCC(C)OC(=O)N(C)c1sc(-c2cccnc2)nc1C` (centres unmarked) [Compound 482], the pest or weed control at 200 ppm in experiment [1] (Abbott's correction formula) and in experiment [2] (Abbott's correction formula) was 80 to 100% in each case.

Take `CCN(C(=O)c1cnco1)c1sc(-c2cccnc2)nc1Cl` [Compound 542]: the pest or weed control at 200 ppm in experiment [1] (Abbott's correction formula) and in experiment [2] (Abbott's correction formula) was 80 to 100% each time.

As for `C=C(CC)C(=O)N(CC)c1sc(-c2cccnc2)nc1Cl` [Compound 534], the pest or weed control at 200 ppm in experiment [1] (Abbott's correction formula) was below 80%; in experiment [2] (Abbott's correction formula), 80 to 100%.

With `CCN(C(=O)c1ccoc1)c1sc(-c2cccnc2)nc1Cl` [Compound 573], the pest or weed control at 200 ppm in experiment [1] (Abbott's correction formula) and in experiment [2] (Abbott's correction formula) was below 80% in each case.

For `Cc1nc(-c2cccnc2)sc1NC(=O)c1cscn1` [Compound 340], the pest or weed control at 200 ppm was 80 to 100% in experiment [1] (green peach aphid) and below 80% in experiment [2] (sweetpotato whitefly-crawler).

As to `CCSCCC(=O)N(CC)c1sc(-c2cccnc2)nc1C` [Compound 322], the pest or weed control at 200 ppm in experiment [1] (green peach aphid) is 80 to 100%; in experiment [2] (sweetpotato whitefly-crawler), below 80%.

As to `CCOC(=O)c1cncc(-c2nc(C)c(N(C(=O)OC(C)(C)C)C(=O)C(C)CSC)s2)c1` (centres unmarked) [Compound 155], the pest or weed control at 200 ppm in experiment [1] (green peach aphid) and in experiment [2] (sweetpotato whitefly-crawler) was below 80% in each case.

In the case of `CSCC(C)(C)C(=O)N(C)c1cnc(-c2cncc(F)c2)s1` [Compound 18, N-[2-(5-fluoropyridin-3-yl)-thiazol-5-yl]-2,2,N-trimethyl-3-methylsulfanyl-propionamide], the pest or weed control at 200 ppm in experiment [1] (green peach aphid) and in experiment [2] (sweetpotato whitefly-crawler) was 80 to 100% throughout.

As for `CCN(C(=O)C(C)C)c1sc(-c2cncc(F)c2)nc1F` [Compound 424], the pest or weed control at 200 ppm in experiment [1] (green peach aphid) and in experiment [2] (sweetpotato whitefly-crawler) was 80 to 100% throughout.

Take `CCN(C(=O)OC(C)(C)C)c1sc(-c2cccnc2)nc1Br` [Compound 452]: the pest or weed control at 200 ppm in experiment [1] (Abbott's correction formula) and in experiment [2] (Abbott's correction formula) was 80 to 100% each time.

With `Cc1nc(-c2cccnc2)sc1N(C)C(=O)[C@H](C)NC(=O)OC(C)(C)C` [Compound 194], the pest or weed control at 200 ppm in experiment [1] (green peach aphid) and in experiment [2] (sweetpotato whitefly-crawler) was 80 to 100% each time.

With `CSCCNC(=S)N(C)c1sc(-c2cncc(F)c2)nc1Cl` [Compound 511], the pest or weed control at 200 ppm in experiment [1] (Abbott's correction formula) was 80 to 100%; in experiment [2] (Abbott's correction formula), below 80%.

In the case of `Cc1nc(-c2cccnc2)sc1N(C)C(=O)CNC(=O)OC(C)(C)C` [Compound 276], the pest or weed control at 200 ppm in experiment [1] (green peach aphid) is 80 to 100%; in experiment [2] (sweetpotato whitefly-crawler) it was below 80%.

Consider `CC(=O)OC(C)C(=O)N(C)c1sc(-c2cccnc2)nc1C` (centres unmarked) [Compound 335], for which the “MYZUPE 200 ppm (Corrected % Control, rating)” value in experiment [1] (green peach aphid) is listed as “A (80-100)”. Besides, in experiment [2] (sweetpotato whitefly-crawler), the “BEMITA 200 ppm (Corrected % Control, rating)” value was “A (80-100)”.

For the compound `CCC(C[S+](C)[O-])C(=O)N(CC)c1sc(-c2cccnc2)nc1Cl` (centres unmarked) [Compound 559], the pest or weed control at 200 ppm in experiment [1] (Abbott's correction formula) and in experiment [2] (Abbott's correction formula) was 80 to 100% each time.

As for `CCN(C(=O)CCSC)c1sc(-c2cccnc2)nc1C` [Compound 236], the pest or weed control at 200 ppm in experiment [1] (green peach aphid) and in experiment [2] (sweetpotato whitefly-crawler) was 80 to 100% in each case.

As to `Cc1nc(-c2cccnc2)sc1N(C)C(=O)C(C)C[S+](C)[O-]` (centres unmarked) [Compound 87], the pest or weed control at 200 ppm in experiment [1] (green peach aphid) and in experiment [2] (sweetpotato whitefly-crawler) was 80 to 100% in each case.

As to `CCN(C(=O)CC(C)(C)[S+](C)[O-])c1sc(-c2cccnc2)nc1Cl` (centres unmarked) [Compound 537], the pest or weed control at 200 ppm was 80 to 100% in experiment [1] (Abbott's correction formula) and below 80% in experiment [2] (Abbott's correction formula).

For the compound `CCCCS/C(=N\CC)N(C)c1sc(-c2cccnc2)nc1C` [Compound 472], the pest or weed control at 200 ppm in experiment [1] (Abbott's correction formula) was 80 to 100%; in experiment [2] (Abbott's correction formula) it was below 80%.

Values taken from patent US8853246B2 (Dow AgroSciences LLC, priority 2009, dated 2014).
